Measured values reported in patent US20110124574A1, “RESTORATION OF ESTROGEN RECEPTOR-(ALPHA) ACTIVITY” (priority 2008, published 2011).
Where no end group is shown, it is not given here. The star is where a group is joined. For = O=C*

B1: recombinant Wnt-5a: recombinant Wnt-5a protein (R&D Systems) (protein, UniProt P41221 62-380, looked up)
Protein Wnt-5a: IIGAQPLCSQLAGLSQGQKKLCHLYQDHMQYIGEGAKTGIKECQYQFRHRRWNCSTVDNTSVFGRVMQIGSRETAFTYAVSAAGVVNAMSRACREGELSTCGCSRAARPKDLPRDWLWGGCGDNIDYGYRFAKEFVDARERERIHAKGSYESARILMNLHNNEAGRRTVYNLADVACKCHGVSGSCSLKTCWLQLADFRKVGDALKEKYDSAAAMRLNSRGKLVQVNSRFNSPTTQDLVYIDPSPDYCVRNESTGSLGTQGRLCNKTSEGMDGCELMCCGRGYDQFKTVQTERCHCKFHWCCYVKCKKCTEIVDQFVCK

Assays:
ERα [1] = experiment: ERα protein expression by Western blot in stimulated 4T1 cells; type: cell-based, mouse; conditions: stimulation for 24 and 48 hours
Method: Breast cancer cells were grown in 6 well plates, and stimulated with recombinant Wnt-5a protein (rW5a), the Wnt-5a derived Foxy-5 peptide (F5), recombinant Wnt-3a protein (rW3a), or a formylated random hexapeptide (Rdm) for 24 or 48 h. Following treatment cells were lysed and subjected to SDS-PAGE, transferred to nitrocellulose membranes and blotted for ERα expression. A: MDA-MB-231 cells stimulated with recombinant Wnt-5a, Foxy-5, Wnt-3a, Rdm. B: MDA-MB-468 cells stimulated with recombinant Wnt-5a or Foxy-5. C: 4T1 cells stimulated with recombinant Wnt-5a or Foxy-5. Positive controls (Pos) were included in order to confirm the correct band size for ERα. Two different positive controls were used: T47D cell lysates known to express ERα and MDA-MB-231 cells transiently transfected with a full length ERα plasmid, resulting in extremely high ERα expression (top row, right panel, third row, right panel). […]
(§1) Cells were lysed in Triton lysis buffer (50 mM Tris (pH7.5), 1% Triton x-100, 140 mM NaCl, 0.5 mM EDTA, 0.5 MgCl2, 10 mM NaF) with the addition of fresh leupeptin (1 μg/ml), Pefabloc (2 mM), aprotinin (20 μg/ml) and Na3VO4 (4 mM). […] Scanning and densitometry was performed using a Bio-Rad (Hercules Calif.) GS-800 densitometer with Quantity One software. […]

ERα [2] = experiment: ERα mRNA by RT-PCR in stimulated MDA-MB-231 cells; type: cell-based, human; conditions: time points 6, 12, 18 and 24 hours
Method: Breast cancer cells were grown in 6 well plates and stimulated with recombinant Wnt-5a protein (rW5a) or the Wnt-5a derived Foxy-5 peptide (F5), for 6, 12, 18 or 24 h. RNA was extracted at the end time point, cDNA synthesized and subjected to RT-PCR for ERα and the housekeeping gene, β-actin. A: MDA-MB-231 breast cancer cells, B: MDA-MB-468 breast cancer cells. The positive control (Pos) is RNA extracted from T47D cells which express ERα. The negative control represents a water control.
Stimulation of cells was performed with recombinant Wnt-5a (0.6 μg/ml) and recombinant Wnt-3a (0.1 μg/ml and in a control experiment, 0.6 μg/ml) (R&D Systems Abington, UK) for times as indicated. The Wnt-5a derived formylated hexapeptide, Foxy-5 (formyl-MDGCEL) (SEQ. ID. NO. 1) designed in the laboratory of the inventors, and a formylated random hexapeptide (formyl-MSADVG) (SEQ: ID: NO: 16) were either synthesized by Pepscan Presto (Lelystad, The Netherlands) or Inbiolabs (Tallinn, Estonia). The peptides were purified by RP-HPLC and mass spectrometry, and the >95% pure peptides were synthesized three times. […]
RNA extraction was performed in a designated clean RNA area with the addition of 500 μl TRIzol to each sample. […] The RNA concentration was measured using a Nanodrop Spectrophotometer ND-1000 (Bio-Rad (Hercules Calif.)). […]

Phospho-ERα (Ser 118) = Phospho-ERα (Ser 118) Western blot in MDA-MB-231 cells; type: cell-based, human; conditions: stimulated lysates
Method: MDA-MB-231 cells were grown in 6 well plates and stimulated with recombinant Wnt-5a protein (rW5a) or the Wnt-5a derived Foxy-5 peptide (F5), for 24 or 48 h. A: Following treatment, cells were lysed and subjected to SDS-PAGE, transferred to nitrocellulose membranes and blotted for phospho-ERα expression. The positive control (Pos) represents cell lysates from T47D cells expressing ERα B and C: RNA was also extracted from stimulated cells and samples tested for progesterone receptor (PR) (B) and pS2 (C) mRNA using semi-nested RT-PCR. The positive control (Pos) is RNA extracted from T47D cells that express ERα. The negative control represents a water control. PCR results are representative of three separate experiments.
as §1, with “mM). Lysates were incubated on ice for 15 minutes, then pre-cleared by centrifugation for 10 minutes at 8000 g. Cell lysates were separated according to size on 8-12% SDS-polyacrylamide gels and subsequently electrically transferred to PVDF or nitrocellulose membranes.” for “mM).”

Molecule | ERα levels (ERα [1]) | stimulation time after which ERα mRNA was detected (ERα [2]) | Phosphorylated ERα (serine 118) (Phospho-ERα (Ser 118))
formyl-MDGCEL (For-MDGCEL; listed as Homo sapiens) [Foxy-5] | upregulated | 6 h | detected
B1 | upregulated | 12 h | detected
